Experimental data as given in US20140336182A1, “Aurora Kinase Modulators and Method of Use” (Amgen Inc., priority 2013, published 2014).

System: HeLa cells
Test: HeLa cell 24 hr ploidy assay (DNA content)
Format: cell-based
Settings: HeLa cells, 4N ploidy, average, read-out: 24h_4NPloidy EC50_IP (uM Avg)
Procedure, shortened: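 DNA content measured by Hoechst 33342 nuclear staining (0.5 ug/ml, 45 min RT) and high-content imaging of fixed HeLa cells after 24 h compound exposure in 0.25% DMSO. Fractions of 4N and >4N cells fitted to dose curves giving EC50 IP, EC50 transit, Max and Min.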

Row | EC50 [µM] | Compound
1 | 0.062 | 4-(4,5-dimethylthiophen-2-yl)-N-(4-(7-methoxy-1,5-naphthyridin-4-yloxy)phenyl)phthalazin-1-amine [Example 34]
2 | 0.028 | N-(5-(7-methoxy-1,5-naphthyridin-4-yloxy)pyridin-2-yl)-4-phenylphthalazin-1-amine [Example 54]
3 | 0.006 | Clc1ccc(-c2nnc(Nc3ccc(Sc4ccnc5cccnc45)cc3)c3ccccc23)cc1 [compound 308]

Same assay, conditions: Homo sapiens, HeLa, 4N ploidy, average, read-out: 24h_4NPloidy EC50_IP (uM Avg)

Row | EC50 [µM] | Compound
4 | 0.116 | Brc1ccc2c(Oc3ccc(Nc4nnc(-c5ccccc5)c5ccccc45)cc3)ccnc2c1 [compound 133]
5 | 0.305 | COCc1cccc(-c2nnc(Nc3ccc(Oc4ccnc5cc(OC)cnc45)cc3)c3ccccc23)n1 [compound 120]
6 | 0.07 | COc1cnc2c(Nc3ccc(Nc4nnc(-c5ccccc5)c5ccccc45)cc3)ccnc2c1 [Example 40, N′-(7-methoxy-1,5-naphthyridin-4-yl)-N4-(4-phenylphthalazin-1-yl)benzene-1,4-diamine]
7 | 0.061 | COc1cnc2c(Oc3ccc(Nc4nnc(-c5nc(C)cs5)c5ccccc45)cc3)ccnc2c1 [compound 82, N-(4-((7-(methyloxy)-1,5-naphthyridin-4-yl)oxy)phenyl)-4-(4-methyl-1,3-thiazol-2-yl)-1-phthalazinamine]
8 | 0.018 | COc1cc2nccc(Oc3ccc(Nc4nnc(-c5ccc(C)c(C)c5)c5ccccc45)cc3)c2cc1OC [compound 74]
9 | 0.167 | Cc1csc(-c2nnc(Nc3ccc(Oc4ccnc5cc(C(N)=O)ccc45)cc3)c3ccccc23)n1 [compound 95]
10 | 0.009 | COc1cccc(-c2nnc(Nc3ccc(Oc4ccnc5cc(OC)c(OC)cc45)cc3)c3ccccc23)n1 [compound 101]
11 | 0.026 | COc1cnc2c(Oc3ccc(Nc4nnc(N5CCN6CCC[C@H]6C5)c5ccccc45)cc3)ccnc2c1 [compound 97]
12 | 0.03 | COc1ccc2c(Oc3ccc(Nc4nnc(-c5ccccc5)c5ccccc45)cc3)ccnc2c1 [compound 91]
13 | 0.039 | CCc1cc(-c2ccccc2)nnc1Nc1ccc(Oc2ncnc3cc(OC)c(OC)cc23)cc1 [compound 148]
14 | 0.075 | COc1cnc2c(Oc3ccc(Nc4nnc(-c5ccc(OC)nc5)c5ccccc45)cc3)ccnc2c1 [compound 158]
15 | 0.008 | COc1cnc2c(Oc3ccc(Nc4nnc(-c5ccc(C)cc5)c5ccccc45)cc3)ccnc2c1 [compound 81]

Same assay, conditions: Homo sapiens, HeLa, HeLa cells, 4N ploidy, average, read-out: 24h_4NPloidy EC50_IP (uM Avg)

Row | EC50 [µM] | Compound
16 | 0.04 | Fc1cc(Nc2nnc(-c3ccc(Cl)cc3)c3ccccc23)ccc1Oc1ccnc2ccccc12 [compound 244]
17 | 0.004 | COc1cnc2c(Sc3ccc(Nc4nnc(N5CCC(OC)CC5)c5ccccc45)cc3)ccnc2c1 [compound 520]
18 | 0.105 | COc1ccc2c(Cc3ccc(Nc4nnc(-c5ccccc5)c5ccccc45)cc3)ccnc2c1 [Example 53, N-(4-((7-methoxyquinolin-4-yl)methyl)phenyl)-4-phenylphthalazin-1-amine]
19 | 0.025 | COc1cnc2c(Oc3ccc(Nc4nnc(-c5ccc(F)c(OC)c5)c5ccccc45)cc3)ccnc2c1 [compound 180]
20 | 0.007 | COc1cnc2c(Sc3ccc(Nc4nnc(-c5ccc(F)cc5)c5ccccc45)cc3)ccnc2c1 [compound 356, 4-(4-fluorophenyl)-N-(4-(7-methoxy-1,5-naphthyridin-4-ylthio)phenyl)phthalazin-1-amine]
21 | 0.077 | COc1cnc2c(Oc3ccc(Nc4nnc(-c5cc(C)no5)c5ccccc45)cc3)ccnc2c1 [compound 350]
22 | 0.012 | COc1ccc2nccc(Sc3ccc(Nc4nnc(-c5ccccc5)c5ccccc45)cc3)c2c1 [compound 292, N-(4-((6-(methyloxy)-4-quinolinyl)thio)phenyl)-4-phenyl-1-phthalazinamine]
23 | 0.031 | COc1cnc2c(Oc3ccc(Nc4nnc(-c5cccc(Cl)c5)c5ccccc45)cc3)ccnc2c1 [compound 219]
24 | 0.024 | COc1cnc2c(Sc3ccc(Nc4nnc(-c5ccccc5F)c5ccccc45)cc3)ccnc2c1 [compound 495]
25 | 0.008 | COc1cnc2c(Sc3ccc(Nc4nnc(-c5ccc(Cl)cn5)c5ccccc45)cc3)ccnc2c1 [compound 304, 4-(5-chloro-2-pyridinyl)-N-(4-((7-(methyloxy)-1,5-naphthyridin-4-yl)thio)phenyl)-1-phthalazinamine]
26 | 0.02 | COc1cnc2c(Sc3ccc(Nc4nnc(N5CCC[C@@H](OC)C5)c5ccccc45)cc3)ccnc2c1 [compound 532]
27 | 0.021 | Cc1cc2nccc(Sc3ccc(Nc4nnc(-c5ccc(C)c(N)c5)c5ccccc45)cc3)c2o1 [compound 492]
28 | 0.036 | COc1cnc2c(Oc3ccc(Nc4nnc(-c5ccc(F)cc5)c5ccccc45)cc3)ccnc2c1 [compound 220, 4-(4-fluorophenyl)-N-(4-((7-(methyloxy)-1,5-naphthyridin-4-yl)oxy)phenyl)-1-phthalazinamine]
29 | 0.036 | COc1ccc2nccc(Sc3ccc(Nc4nnc(N5CCCCC5)c5ccccc45)cc3)c2n1 [compound 548]
30 | 0.029 | COc1cnc2c(Sc3ccc(Nc4nnc(-c5cccc(C)n5)c5ccccc45)cc3)ccnc2c1 [compound 420]
31 | > 1.2 | Clc1ccc(-c2nnc(Nc3ccc(Oc4cnnc5ccc(Br)cc45)cc3)c3ccccc23)cc1 [compound 369]
32 | > 1.2 | CN(c1ccc(Oc2ccnc3ccc(=O)[nH]c23)cc1)c1nnc(-c2ccc(Cl)cc2)c2ccccc12 [compound 500]
33 | 0.343 | COc1cnc2c(Oc3ccc(Nc4nnc(-c5ccnc(Cl)c5)c5ccccc45)cc3)ccnc2c1 [compound 283]

Row | EC50 [µM] | Compound
34 | 0.055 | COCCOCCOc1ccc2nccc(Sc3ccc(Nc4nnc(-c5ccc(Cl)cc5)c5ccccc45)cc3)c2c1 [Example 389, 4-(4-Chlorophenyl)-N-(4-(6-(2-(2-methoxyethoxy)ethoxy)quinolin-4-ylthio)phenyl) phthalazin-1-amine]
35 | 0.067 | COc1cnc2c(Sc3ccc(Nc4nnc(-c5cscn5)c5ccccc45)cc3)ccnc2c1 [compound 506]
36 | 0.051 | COc1cnc2c(Oc3ccc(Nc4nnc(-c5cc(C)cc(C)c5)c5ccccc45)cc3)ccnc2c1 [compound 188]
37 | 0.011 | c1ccc2c(Sc3ccc(Nc4nnc(-c5ccc6c(c5)OCO6)c5ccccc45)cc3)ccnc2c1 [compound 517]
38 | 0.191 | COc1cnc2c(Oc3ccc(Nc4nnc(-c5ncc(C)s5)c5ccccc45)cc3)ccnc2c1 [compound 189]
39 | 0.029 | COc1cc(F)cc2nccc(Sc3ccc(Nc4nnc(-c5cc(C)cs5)c5ccccc45)cc3)c12 [compound 440]
40 | 0.012 | COc1cnc2c(Oc3ccc(Nc4nnc(-c5cc(CO)cs5)c5ccccc45)cc3)ccnc2c1 [Example 407, (5-(4-(4-(7-Methoxy-1,5-naphthyridin-4-yloxy)phenylamino)phthalazin-1-yl)thiophen-3-yl)methanol]
41 | 0.6 | COc1cnc2c(Oc3ccc(Nc4nnc(-c5ccc(Cl)cc5C)c5ccccc45)cc3)ccnc2c1 [compound 233]
42 | 0.031 | Clc1ccc(-c2nnc(Nc3ccc(Oc4ccnc5ccncc45)cc3)c3ccccc23)cc1 [compound 423]
43 | 0.001 | Cc1csc(-c2nnc(Nc3ccc(Sc4ccnc5cc[nH]c45)cc3)c3ccccc23)c1 [compound 464]
44 | 0.004 | COc1cnc2c(Sc3ccc(Nc4nnc(N5CCC(Cl)CC5)c5ccccc45)cc3)ccnc2c1 [compound 527]
45 | 0.076 | O=C(c1cc2nccc(Sc3ccc(Nc4nnc(-c5ccccc5)c5ccccc45)cc3)c2s1)N1CCOCC1 [compound 313]
46 | 0.032 | Clc1ccc(-c2nnc(Nc3ccc(Sc4ccnc5ccoc45)cc3)c3ccccc23)nc1 [Example 391, 4-(5-Chloropyridin-2-yl)-N-(4-(furo[3,2-b]pyridin-7-ylthio)phenyl)phthalazin-1-amine]
47 | 0.008 | COc1cnc2c(Oc3c(F)cc(Nc4nnc(-c5ccc(Cl)cc5)c5ccccc45)cc3F)ccnc2c1 [compound 454]
48 | 0.027 | COc1cnc2c(Oc3ccc(Nc4nnc(-c5ccc(C)nc5F)c5ccccc45)cc3)ccnc2c1 [compound 178]
49 | 0.002 | Cc1csc(-c2nnc(Nc3ccc(Sc4ccnc5ccsc45)cc3)c3ccccc23)c1 [compound 366]
50 | 0.029 | Clc1ccc(-c2nnc(Nc3ccc(Sc4ccnc5cc(Br)cnc45)cc3)c3ccccc23)cc1 [compound 324]
51 | 0.028 | COc1cc2nccc(Sc3ccc(Nc4nnc(-c5ccc(Cl)cc5)c5ccccc45)cc3)c2nc1OC [compound 598]

Same assay, conditions: Homo sapiens, HeLa, HeLa cells, average, read-out: 24h_4NPloidy EC50_IP (uM Avg)

Row | EC50 [µM] | Compound
52 | 0.053 | COc1ccc2c(C(O)c3ccc(Nc4nnc(-c5ccc(Cl)cc5)c5ccccc45)cc3)ccnc2c1 (stereo not drawn) [compound 614]
53 | > 1.2 | COc1ccc2c(C(C)c3ccc(Nc4nnc(-c5ccc(Cl)cc5)c5ccccc45)cc3)ccnc2c1 (stereo not drawn) [compound 613]

Biological target: T1, AuroraA-TPX2 (Homo sapiens, UniProt O14965)
T1 sequence (O14965 133-383 limits assumed): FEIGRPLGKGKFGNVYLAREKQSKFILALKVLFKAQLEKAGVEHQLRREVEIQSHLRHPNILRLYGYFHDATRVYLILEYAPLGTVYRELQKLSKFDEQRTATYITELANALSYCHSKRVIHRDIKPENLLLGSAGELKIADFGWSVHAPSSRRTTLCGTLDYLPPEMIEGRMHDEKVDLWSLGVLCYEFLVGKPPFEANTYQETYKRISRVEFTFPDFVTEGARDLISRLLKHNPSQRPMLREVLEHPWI
T1 sequence (Q9ULW0 1-43 partner limits assumed): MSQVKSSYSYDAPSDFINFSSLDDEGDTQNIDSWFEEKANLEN
Test: AuroraA-TPX2 Homogeneous Time Resolved Fluorescent (HTRF) kinase assay
Settings: not given

Row | IC50 [µM] | Compound
54 | 0.048 | Fc1cc(Nc2nnc(-c3ccc(Cl)cc3)c3ccccc23)ccc1Oc1ccnc2ccccc12 [compound 244]
55 | 0.027 | COc1cnc2c(Sc3ccc(Nc4nnc(N5CCC(OC)CC5)c5ccccc45)cc3)ccnc2c1 [compound 520]

Same assay, conditions: read-out: AurA_IC50_IP (uM Avg); average

Row | IC50 [µM] | Compound
56 | 0.013 | 4-(4,5-dimethylthiophen-2-yl)-N-(4-(7-methoxy-1,5-naphthyridin-4-yloxy)phenyl)phthalazin-1-amine [Example 34]
57 | 0.153 | COc1ccc2c(Cc3ccc(Nc4nnc(-c5ccccc5)c5ccccc45)cc3)ccnc2c1 [Example 53, N-(4-((7-methoxyquinolin-4-yl)methyl)phenyl)-4-phenylphthalazin-1-amine]
58 | 0.176 | N-(5-(7-methoxy-1,5-naphthyridin-4-yloxy)pyridin-2-yl)-4-phenylphthalazin-1-amine [Example 54]

Biological target: T2, AuroraB (Homo sapiens, UniProt Q96GD4)
T2 construct: 20 μL of AuroraB FL H is for a final volume of 41 μL; His
Test: AuroraB Homogeneous Time Resolved Fluorescent (HTRF) kinase assay
Format: biochemical
Settings: average; read-out: AurB_IC50_IP (uM Avg)

T2 sequence (Q96GD4 whole entry): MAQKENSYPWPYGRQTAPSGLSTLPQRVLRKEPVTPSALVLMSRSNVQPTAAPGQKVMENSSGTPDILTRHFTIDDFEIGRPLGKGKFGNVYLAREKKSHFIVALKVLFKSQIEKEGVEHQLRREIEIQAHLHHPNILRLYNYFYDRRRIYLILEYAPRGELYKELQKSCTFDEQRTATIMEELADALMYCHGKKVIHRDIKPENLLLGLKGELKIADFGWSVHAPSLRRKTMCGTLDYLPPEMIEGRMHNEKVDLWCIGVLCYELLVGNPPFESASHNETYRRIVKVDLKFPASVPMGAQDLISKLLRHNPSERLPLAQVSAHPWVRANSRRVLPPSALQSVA

Row | IC50 [µM] | Compound
59 | 0.003 | Fc1cc(Nc2nnc(-c3ccc(Cl)cc3)c3ccccc23)ccc1Oc1ccnc2ccccc12 [compound 244]
60 | 0.017 | COc1cnc2c(Sc3ccc(Nc4nnc(N5CCC(OC)CC5)c5ccccc45)cc3)ccnc2c1 [compound 520]
61 | 0.01 | 4-(4,5-dimethylthiophen-2-yl)-N-(4-(7-methoxy-1,5-naphthyridin-4-yloxy)phenyl)phthalazin-1-amine [Example 34]
62 | 0.003 | COc1ccc2c(Cc3ccc(Nc4nnc(-c5ccccc5)c5ccccc45)cc3)ccnc2c1 [Example 53, N-(4-((7-methoxyquinolin-4-yl)methyl)phenyl)-4-phenylphthalazin-1-amine]
63 | 0.02 | N-(5-(7-methoxy-1,5-naphthyridin-4-yloxy)pyridin-2-yl)-4-phenylphthalazin-1-amine [Example 54]
